Consider one compound from US12655090B2, “Cyclopropylamide compounds against parasites in fish” (Intervet Inc., priority 2021, dated 2026).

In assay [1] the test system is Lepeophtheirus salmonis sea lice on salmon (Salmo salar). In words: Salmon in vivo efficacy trial using in-feed administration. As to conditions: 1 mg/kg fish biomass via coated feed for 7 consecutive days. On the procedure: Commercial fish feed pellets were coated with formulated test compound. As formulation DMSO 5%/fish oil 95% was used. Salmon (Salmo salar) were treated orally with 1 mg/kg fish biomass via coated feed for 7 consecutive days. Salmon of the negative control groups received only feed coated with the excipients of the formulation. Fish of the therapeutic groups were infested with Lepeophtheirus salmonis copepodids twice before treatment (around day −28 and day −3).

For assay [2], the system named is Mobile stages of sea lice (pre-adults, adults of Lepeophtheirus salmonis). In words: Adult sea lice contact assay. As to conditions: assessed after approximately 1 and 24 hours of continuous exposure, read-out: EC50 (sea lice inhibition, dead+damaged sea lice). As for the experimental part: Mobile stages of sea lice (i.e., pre-adults, adults of Lepeophtheirus salmonis) were exposed to seawater spiked with declining concentrations of a test compound (dissolved in a PEG sea-water mixture). Sea lice inhibition (% of dead+damaged sea lice) was assessed after approximately 1 and 24 hours of continuous exposure in comparison to a negative (solvent) control group.

For assay [3], the system named is multiresistant Lepeophtheirus salmonis isolate (resistant to azametiphos, emamectin benzoate, deltamethrin), mobile sea lice stages. Briefly: Sea lice resistance assay, multi-resistant isolate. On the procedure: (§1) A sea lice resistance assay was carried out using mobile sea lice stages (i.e., pre-adults, adults) of several Lepeophtheirus salmonis-isolates with known resistance profiles (i.e., fully susceptible or multiresistant (resistant to azametiphos (OP), emamectin benzoate (ML), deltamethrin (SP)). Sea lice were exposed to seawater spiked with declining concentrations of a test compound (dissolved in a PEG300/sea-water mixture). Sea lice inhibition (% of dead+damaged sea lice) was assessed after approximately 24 and 48 hours of continuous exposure in comparison to a negative (solvent) control group.

In assay [4] the test system is Copepodids (juvenile sea lice stage of Lepeophtheirus salmonis). Briefly: Juvenile sea lice contact assay. As to conditions: test concentration 1 nM, approximately 24 hours continuous exposure in seawater, read-out: Sea lice inhibition (% of dead+damaged copepodids). As for the experimental part: Copepodids (juvenile sea lice stage of Lepeophtheirus salmonis) were exposed to seawater spiked with declining concentrations of a test compound (dissolved in a DMSO sea-water mixture). Sea lice inhibition (% of dead+damaged copepodids) was assessed after approximately 24 hours of continuous exposure. The vitality of used parasites was confirmed in a negative (solvent) control group.

Assay [5] relates to Lepeophtheirus salmonis sea lice on salmon (Salmo salar). In words: Salmon in vivo efficacy trial using gavage administration. As to conditions: po. As for the experimental part:
Salmon (Salmo salar) were treated once orally by gavage at a dose of 5 mg/kg bodyweight per fish (Day 0). As formulation DMSO 5%/fish oil 95% was used. Salmon of the negative control group received only the excipients of the formulation. The fish were infested with Lepeophtheirus salmonis copepodids twice before treatment (i.e., around day −28 and day −3) and once after treatment (i.e., day 17). […] Around day 28 (end of animal phase), fish were euthanized, and lice on each fish were classified ((pre-)adult or juvenile stage) and counted. […] Efficacy is expressed as a % reduction of sea lice in treated groups versus a control group, using the Abbott's formula.

Assay [6] relates to fully susceptible Lepeophtheirus salmonis isolate, mobile sea lice stages. In words: Sea lice resistance assay, sensitive isolate. As for the experimental part: as §1

The structures appear in SMILES notation. Where two headings read alike, the source gives them in different places.

On to `N#CC1(NC(=O)c2cc(NC(=O)[C@H]3[C@H](c4cc(Cl)cc(Cl)c4)C3(Cl)Cl)ccc2Cl)CC1` [Compound 1590], for which the “therapeutic efficacy against juvenile sea lice” value in assay [1] (day -3 infestation, counted around day 25) is reported as 100%. Further, the “therapeutic efficacy against (pre-)adult sea lice” value in assay [1] (day -28 infestation, counted around day 8) was 100%. Further, the “prophylactic efficacy against re-infestation after treatment (D14)” value in assay [1] (re-infestation D14) was 100%. For the same compound, the “prophylactic efficacy against re-infestation after treatment (D28)” value in assay [1] (re-infestation D28) stood at 79.2%. The EC50 is at most 1 nM in assay [2]; 3.75 ppb in assay [3] (after 24 hours); 0.58 ppb in assay [3] (after 48 hours); 4.12 ppb in assay [6] (after 24 hours); 0.40 ppb in assay [6] (after 48 hours). Also, the inhibition at 0.001 µM in assay [4] was 80%. Moreover, the inhibition in vivo at 5 mg/kg in assay [5] (168 h, read-out: therapeutic efficacy against (pre-)adult sea lice (% reduction vs control, Abbott's formula), once orally by gavage 5 mg/kg bodyweight, day -28 infestation, counted at day 7) was determined as 100%; in assay [5] (672 h, read-out: prophylactic efficacy at re-infestation on Day 17 (% reduction vs control, Abbott's formula), once orally by gavage 5 mg/kg bodyweight, re-infestation day 17, counted around day 28), 80%; in assay [5] (672 h, read-out: therapeutic efficacy against juvenile sea lice (% reduction vs control, Abbott's formula), once orally by gavage 5 mg/kg bodyweight, day -3 infestation, counted around day 28), 80%.

Broadly, the inhibition is the drop in the measured response relative to a control, in per cent.
